For the experiment, the target named is T1, Tyrosine-protein kinase Tec (Homo sapiens, UniProt P42680).
T1 sequence (P42680 whole entry): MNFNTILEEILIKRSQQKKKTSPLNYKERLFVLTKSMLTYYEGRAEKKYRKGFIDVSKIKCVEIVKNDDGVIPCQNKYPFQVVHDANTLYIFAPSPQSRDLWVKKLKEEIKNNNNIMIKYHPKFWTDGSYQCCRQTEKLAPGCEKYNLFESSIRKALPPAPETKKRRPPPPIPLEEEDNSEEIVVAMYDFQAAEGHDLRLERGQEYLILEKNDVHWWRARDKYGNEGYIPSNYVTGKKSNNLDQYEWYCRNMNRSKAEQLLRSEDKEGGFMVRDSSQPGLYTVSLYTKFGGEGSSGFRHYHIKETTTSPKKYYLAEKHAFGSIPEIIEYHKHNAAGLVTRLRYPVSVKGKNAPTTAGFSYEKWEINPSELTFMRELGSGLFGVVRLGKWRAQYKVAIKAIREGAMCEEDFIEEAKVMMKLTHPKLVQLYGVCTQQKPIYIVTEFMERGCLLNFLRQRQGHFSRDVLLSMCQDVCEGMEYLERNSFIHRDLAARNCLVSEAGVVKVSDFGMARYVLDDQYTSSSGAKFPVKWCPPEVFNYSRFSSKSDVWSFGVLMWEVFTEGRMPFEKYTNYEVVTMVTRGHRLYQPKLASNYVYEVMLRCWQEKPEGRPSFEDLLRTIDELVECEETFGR
As to the kind of experiment: Binding affinity to Tec SH3 domain.
In turn, `c1c[nH]c(CNc2ccc3ccccc3n2)c1` had a Kd of 285 µM.
For `Fc1cccc(CNc2ccc3ccccc3n2)c1` the value was 177 µM; for `c1ccc(CNc2ccc3ccccc3n2)cc1`, 193 µM; for `Oc1ccc(CNc2ccc3ccccc3n2)cc1`, 292 µM.
As to `Fc1ccccc1CNc1ccc2ccccc2n1`, the Kd amounted to 208 µM.
For `Oc1cccc(CNc2ccc3ccccc3n2)c1` the value was 234 µM.

The Kd is a measure of binding affinity in units of concentration. A low value points to a tighter complex.
